Paper PMC8175240, “Integrase-derived peptides together with CD24-targeted lentiviral particles inhibit the growth of CD24 expressing cancer cells” (Oncogene, 2021)
Converted amounts (≈) assume the structure as drawn. Residues, ends and D or L forms follow the SMILES beside them.

Tests used:
SD rats [1] = test: Immunogenicity, anti-peptide antibody ELISA; assay type: in vivo, rat; settings: biweekly administrations over 10 weeks, serum 1:50
Procedure: Animals were fed ad libitum a commercial rodent diet (Teklad Certified Global 18% Protein Diet). Animals had free access to sterilized and acidified drinking water (pH between 2.5 and 3.5). SD rats were randomly allocated to cages and treated twice a week, for ten weeks with INS peptide, at two doses of 1.5 and 7.5 mg/kg. Rat blood was collected before immunization (exposure to the peptide) to serve as a baseline, and after immunization at day 21, 35, 49, and 70/72. The immunogenicity was analyzed by evaluation of anti-peptide antibodies in the sera of SD rats, using a specific developed ELISA test. A 96 well plate was coated overnight with INS labeled with biotin (5 µg/ml) (Thermo Scientific) followed by blocking (3% Milk in PBS) for 1 h at room temperature (RT). Serum samples were diluted at 1:50 and added to the plates for 1 h at RT. After washing with PBST (three times), a donkey anti-rat antibody (Jackson Laboratories, cat. no. 705-035-003) (diluted 1:5000) was added and incubated for 1 h at RT. Then, TMB, diluted 1:2 was added and the reaction was stopped after 10 min with HCL solution. Absorbance was measured by an automated microplate reader (iMARK microplate reader, BioRad) with a wavelength of 450 nm.

SD rats [2] = test: 28-day repeated dose toxicity study; assay type: in vivo, rat; settings: slow IV bolus twice weekly for 4 weeks, 4 weeks recovery; male and female SD rats; highest dose tested
Procedure: Four weeks of repeated dosing followed by four weeks of recovery was performed in female and male SD rats, via slow IV bolus of the INS peptide. Eighty rats (40 males and 40 females) were utilized for the main study groups (n = 10 per study group). An additional 40 animals (20 males and 20 females) were used as recovery groups (n = 5 per study group). Group allocation was done without investigator blinding. Study evaluations included: mortality and morbidity, body weight, food consumption, clinical signs, ophthalmological observation, blood collection for hematology, clinical chemistry, coagulation, urine analysis, necropsy, and gross pathology, organ weight, and histopathology. The study was approved by the Institutional Review Board of Tel Aviv Sourasky Medical Center.

[3] = Solubility of IN-derived peptides in human plasma; assay type: physicochemical; settings: LC-MS
Procedure: (§1) Analytic HPLC-MS was performed using an Agilent 1260 series Liquid Chromatography/Mass Selective Detector (MSD) equipped with an electrospray interface and a UV diode array detector. Analyses were performed on an ACE C8, 50 × 3.0 mm, 3 µm column, with an isocratic 0.1% formic acid/ACN eluent, at a rate of 1 ml/min over a period of 5 min. UV absorption was measured at 280 nm, 220 nm, and 215–395 nm. MS analysis was performed with ESI (electron spray ionization) with a positive ionization method.
(§2) Four reaction systems were prepared; INS and INR2 in human plasma, INS and INR2 in rat plasma (Supplementary Table 2). Freshly prepared 10 mg/ml stock solution of the peptides was injected into plasma or PBS solution (1:1). The mixture was diluted with methanol to precipitate the plasma proteins. The samples were filtered through PTFE 0.45 µm filters and run in LC-MS. Samples were taken at the following times: 0, 15, 30, 60, 120, 240, and 480 min and after 24 h.
(§3) Plasma solubility was determined at 0 min and was verified at 60 min (if no degradation was observed).

[4] = Solubility of IN-derived peptides in rat plasma; assay type: physicochemical; settings: LC-MS
Procedure: as §1, §2, §3

[5] = test system: Lymphocytes of healthy volunteers; test: Cytotoxicity of peptides, WST-1; assay type: cell-based, human; settings: peptide alone
Procedure: Written informed consent was obtained from all eligible participants prior to entry into the study. Approval for this study was provided by Kaplan Medical Center’s Ethics Committee (Protocol No. ZMS1/2016). Lymphocytes of healthy volunteers were isolated from the peripheral blood by Ficoll-Paque density gradient centrifugation. Cells were incubated in DMEM with different peptide concentrations for 72 h. Then, 100 µl of cells were taken for toxicity testing using a quantitative cell viability test, the WST-1 assay.

CHO-WBL cells = test: Chromosomal aberration assay (genotoxicity); assay type: cell-based, Chinese hamster; settings: for % Gaps / % Structural aberration without gaps / Cells with endoreduplication (%) / Cells with polyploidy (%) / Cytotoxicity (%) / % Structural aberrant cells: harvest 22 h; for Cytotoxicity (%): cell growth inhibition relative to negative control; for % Structural aberrant cells: cells with only gaps not included
Procedure: All cells were cultured for 22 h after initiation of INS treatment.

HeLa cells = test system: HeLa cells; parameters: method as in PMID 20517955; settings: cited from earlier work
[6] = from 5 mg/mL sample (10 mg/ml stock into plasma 1:1), at 0 min, verified at 60 min, methanol precipitation, PTFE 0.45 µm filtration
[7] = INS 10 µg/mL, +S9, 3 h treatment
[8] = INS 10 µg/mL, −S9, 3 h treatment
[9] = INS 10 µg/mL, −S9, 22 h treatment
[10] = INS 25 µg/mL, +S9, 3 h treatment
[11] = INS 25 µg/mL, −S9, 3 h treatment
[12] = INS 25 µg/mL, −S9, 22 h treatment
[13] = INS 50 µg/mL (precipitate), +S9, 3 h treatment
[14] = INS 50 µg/mL (precipitate), −S9, 3 h treatment
[15] = INS 50 µg/mL (precipitate), −S9, 22 h treatment

CC[C@H](C)[C@H](NC(=O)[C@H](Cc1ccccc1)NC(=O)[C@@H](NC(=O)[C@H](C)NC(=O)[C@H](CCSC)NC(=O)[C@H](CCC(N)=O)NC(=O)[C@@H](NC(=O)[C@H](C)NC(=O)[C@@H](NC(=O)[C@@H](N)Cc1c[nH]c2ccccc12)[C@@H](C)O)C(C)C)C(C)C)C(=O)N[C@@H](Cc1c[nH]cn1)C(=O)N[C@@H](CC(N)=O)C(=O)N[C@@H](Cc1ccccc1)C(=O)N[C@@H](CCCCN)C(=O)N[C@@H](CCCNC(=N)N)C(=O)N[C@@H](CCCCN)C(=O)O [INS] (H-WTAVQMAVFIHNFKRK-OH)
Immunogenicity (anti-peptide antibodies, ELISA; words) (SD rats [1]; dose level 1.5 (mg/kg)): no
Immunogenicity (anti-peptide antibodies, ELISA; words) (SD rats [1]; dose level 7.5 (mg/kg)): very low
no-observed-adverse-effect level (NOAEL) (SD rats [2]): 7.5 mg/kg
Solubility ([3]; % of 5 mg/mL sample): 62%
Solubility [3, 6]: 3.1 mg/mL (≈ 1570 µM)
Solubility ([4]; % of 5 mg/mL sample): 80.2%
Solubility [4, 6]: 4.01 mg/mL (≈ 2030 µM)
Viability of primary lymphocytes [5]: not affected
Induction of structural chromosomal aberrations (conclusion) (CHO-WBL cells; 10-50 µg/mL, ±S9, 3 and 22 h): negative
% Gaps (CHO-WBL cells; [7]): 0.3%
% Structural aberration without gaps (CHO-WBL cells; [7]): 1.0%
Cells with endoreduplication (%) (CHO-WBL cells; [7]): 0.0%
Cells with polyploidy (%) (CHO-WBL cells; [7]): 0.0%
Cytotoxicity (%) (CHO-WBL cells; [7]): 5%
% Structural aberrant cells (CHO-WBL cells; [7]): 1.0%
% Gaps (CHO-WBL cells; [8]): 0.7%
% Structural aberration without gaps (CHO-WBL cells; [8]): 1.3%
Cells with endoreduplication (%) (CHO-WBL cells; [8]): 0.0%
Cells with polyploidy (%) (CHO-WBL cells; [8]): 0.0%
Cytotoxicity (%) (CHO-WBL cells; [8]): 4%
% Structural aberrant cells (CHO-WBL cells; [8]): 1.3%
% Gaps (CHO-WBL cells; [9]): 0.7%
% Structural aberration without gaps (CHO-WBL cells; [9]): 1.0%
Cells with endoreduplication (%) (CHO-WBL cells; [9]): 0.0%
Cells with polyploidy (%) (CHO-WBL cells; [9]): 0.0%
Cytotoxicity (%) (CHO-WBL cells; [9]): −1%
% Structural aberrant cells (CHO-WBL cells; [9]): 1.0%
% Gaps (CHO-WBL cells; [10]): 0.3%
% Structural aberration without gaps (CHO-WBL cells; [10]): 1.0%
Cells with endoreduplication (%) (CHO-WBL cells; [10]): 0.3%
Cells with polyploidy (%) (CHO-WBL cells; [10]): 0.0%
Cytotoxicity (%) (CHO-WBL cells; [10]): −1%
% Structural aberrant cells (CHO-WBL cells; [10]): 1.0%
% Gaps (CHO-WBL cells; [11]): 0.3%
% Structural aberration without gaps (CHO-WBL cells; [11]): 1.0%
Cells with endoreduplication (%) (CHO-WBL cells; [11]): 0.3%
Cells with polyploidy (%) (CHO-WBL cells; [11]): 0.0%
Cytotoxicity (%) (CHO-WBL cells; [11]): −10%
% Structural aberrant cells (CHO-WBL cells; [11]): 1.0%
% Gaps (CHO-WBL cells; [12]): 0.0%
% Structural aberration without gaps (CHO-WBL cells; [12]): 1.0%
Cells with endoreduplication (%) (CHO-WBL cells; [12]): 0.0%
Cells with polyploidy (%) (CHO-WBL cells; [12]): 0.0%
Cytotoxicity (%) (CHO-WBL cells; [12]): −3%
% Structural aberrant cells (CHO-WBL cells; [12]): 1.0%
% Gaps (CHO-WBL cells; [13]): 0.3%
% Structural aberration without gaps (CHO-WBL cells; [13]): 1.7%
Cells with endoreduplication (%) (CHO-WBL cells; [13]): 7.3%
Cells with polyploidy (%) (CHO-WBL cells; [13]): 0.0%
Cytotoxicity (%) (CHO-WBL cells; [13]): 46%
% Structural aberrant cells (CHO-WBL cells; [13]): 1.7%
% Gaps (CHO-WBL cells; [14]): 0.7%
% Structural aberration without gaps (CHO-WBL cells; [14]): 1.3%
Cells with endoreduplication (%) (CHO-WBL cells; [14]): 0.0%
Cells with polyploidy (%) (CHO-WBL cells; [14]): 0.0%
Cytotoxicity (%) (CHO-WBL cells; [14]): −7%
% Structural aberrant cells (CHO-WBL cells; [14]): 1.3%
% Gaps (CHO-WBL cells; [15]): 0.3%
% Structural aberration without gaps (CHO-WBL cells; [15]): 1.3%
Cells with endoreduplication (%) (CHO-WBL cells; [15]): 0.0%
Cells with polyploidy (%) (CHO-WBL cells; [15]): 0.0%
Cytotoxicity (%) (CHO-WBL cells; [15]): −1%
% Structural aberrant cells (CHO-WBL cells; [15]): 1.3%
Cell permeability (HeLa cells): cell-permeable
Toxicity (HeLa cells): non-toxic
